# From PMC9738107, “Targeting of the ELR+CXCL/CXCR1/2 Pathway Is a Relevant Strategy for the Treatment of Paediatric Medulloblastomas” (Cells, 2022)
# Columns and labels:
# Assay type in all cases: cell-based, human
# [1] = system: ERK phosphorylation in HD-MB03 cells; test: Immunoblotting of p-ERK/p-AKT; settings: HD-MB03, 1 or 2.5 µM, 2 h
# Experimental: (§1) Figure 5 C29 inhibits signalling pathway that stimulates in cell proliferation and survival. (A–C). Daoy (A), HD-MB03 (B), and ONS-76 (C) cells were treated with C29 (1 or 2.5 μM) for 2 h (A–C) or 24 h (C), n = 3. The expression of p- ERK and p-AKT, relative to ERK and AKT, (respectively) was used to describe the relative activation of the pathways. ARD1 and HSP90 were used as loading controls. Statistics were performed using Student t-test for two comparisons only or ANOVA test for multiple comparisons. * p < 0.05, ** p < 0.01. […]
# (§2) Protein extraction and immunoblotting
# (§3) Cells were cultured to sub confluency and lysed in 60 mM Tris‐Cl pH 6∙8, 2% SDS, 10% glycerol, 5% β‐mercapto‐ethanol, 0∙01% bromophenol blue).
# (§4) Lysates were sonicated for 25 seconds, and protein amount was determined by the Pierce™ BCA Protein Assay Kit assay (Thermo Fisher). Sample proteins were reduced by heating at 95 °C for 5 min. 30 μg of proteins were separated on 10% SDS‐polyacrylamide gels and transferred on PVDF membranes in Tris‐Glycine buffer (25 mM Tris, 192 mM glycine, pH 8∙3) + 20% ethanol (v:v). Membranes were blocked with 3% BSA, at room tem‐ perature for 1 h, then immunoblotted overnight with primary antibodies diluted in 3% BSA, at 4 °C. The following primary antibodies were used: AKT (CST, #9272S), phospho‐ […]
# (§5) ARD1 (homemade polyclonal rabbit antibody). Membranes were incubated with HRP‐ conjugated secondary antibodies anti‐rabbit IgG 1/5000e (Promega), at room temperature, for 1h30. After washing, the Advansta WesternBright Quantum HRP substrate (Diagom‐ ics, Blagnac, France) was used as detection reagent.
# [2] = system: ERK phosphorylation in Daoy cells; test: Immunoblotting of p-ERK/p-AKT; settings: 1 or 2.5 µM, 2 h
# Experimental: as §1, §2, §3, §4, §5
# [3] = system: Daoy cells; test: CXCL8-induced migration in Boyden chamber; settings: 1 µM, 200 ng/mL CXCL8
# Experimental: (§6) Figure 4 C29 reduces proliferation, migration, and invasion of naïve MB cells. (A) Proliferation of Daoy, ONS-76, HD-MB03, and D341Med wild-type cells after treatment with 1 μM C29 or the control (DMSO), n = 3. (B) Clonogenic assay on Daoy (n = 4), ONS-76 (n = 3) and HD -MB03 (n = 5) cells after treatment with control (DMSO) or C29 (1 μM or 2.5 μM). Scale = 500 μm. (C) Cell migration through the Boyden chamber of Daoy and ONS-76 cells specifically attracted by 200 ng/mL CXCL8. Results are expressed as percentage of control (DMSO) (n = 3). Scale = 1000 μm. (D) Spheroid invasion using 3D culture cell assays on Daoy (n = 4) and ONS-76 cells (n = 3) treated with control (DMSO) or C29 at a concentration of 1 μM on day 0, 1, and 2. Results are expressed as percentage of day 0, n = 4. Scale = 500 μm. Statistics were performed using Student t-test for 2 comparisons only or ANOVA test for multiple comparisons. * p < 0.05, ** p < 0.01, *** p < 0.001. […]
# (§7) each month by using PlasmoTest Kit (#10L07‐MM, InvivoGen, Toulouse, France). Daoy and ONS‐76 belong to the Shh genetic subgroup, D341‐Med and HD‐MB03 to group 3. […]
# (§8) (1, 2∙5, 5μM) for 48 hours. […]
# (§9) Data were presented with the percentage of cell death after subtracting the percentage of untreated and unlabelled dead cells.
# (§10) Migration in Boyden chambers
# (§11) The cells were deprived of serum overnight. […] Cells were counted using ImageJ software (NIH). […]
# [4] = system: ONS-76 cells; test: CXCL8-induced migration in Boyden chamber; settings: ONS-76, 1 µM, 200 ng/mL CXCL8
# Experimental: as §6, §7, §8, §9, §10, §11
structure (smiles),measurement,setting,value
"O=C(Nc1cccc(Cl)c1)Nc1nc2ccc([N+](=O)[O-])cc2s1 [C29, 1-(3-chlorophenyl)-3-(6-nitrobenzo[d]thiazol-2-yl) urea]",ERK phosphorylation,[1],inhibited ERK phosphorylation
same,ERK phosphorylation,[2],inhibited ERK phosphorylation
same,CXCL8-induced migration,[3],blocked CXCL8-induced migration
same,CXCL8-induced migration,[4],blocked CXCL8-induced migration
